Test results as given in patent US20240254121A1, “ALKYLAMIDE SUBSTITUTED, ANNULATED IMIDAZOLES AND USE THEREOF AS INSECTICIDES” (Bayer Aktiengesellschaft, priority 2021, published 2024).

Legend:
Type in all cases: in vivo
[1] = test system: larvae of the banded cucumber beetle (Diabrotica balteata); test: Diabrotica balteata spray test; conditions: 168 h, 100 g/ha (=32 μg/well), wheat seeds, after 7 days, read-out: efficacy (seedling growth)
Procedure: Diabrotica Balteata—Spray Test
• Solvent: 78.0 Parts by Weight of Acetone • 1.5 parts by weight of dimethylformamide • Emulsifier: Alkylarylpolyglycol Ether
(§1) To produce a suitable preparation of active compound, 1 part by weight of active compound is mixed with the stated amount of solvent, and the concentrate is diluted with water, containing an emulsifier concentration of 1000 ppm, to the desired concentration. Further test concentrations are prepared by dilution with emulsifier containing water.
Soaked wheat seeds (Triticum aestivum) are placed in a multiple well plate filled with agar and some water and are incubated for 1 day to germinate (5 seeds per well). The germinated wheat seeds are sprayed with a test solution containing the desired concentration of the active ingredient. Afterwards each unit is infected with 10-20 larvae of the banded cucumber beetle (Diabrotica balteata).
After 7 days efficacy in % is determined. 100% means all the seedlings have grown up like in the untreated, uninfected control; 0% means none of the seedlings have grown.

[2] = test system: brown planthopper (Nilaparvata lugens); test: Nilaparvata lugens spray test; conditions: 96 h, rice plants, after 4 days
Procedure: Nilaparvata lugens—Spray Test • Solvent: 78.0 parts by weight of acetone • 1.5 parts by weight of dimethylformamide • Emulsifier: alkylarylpolyglycol ether
as §1, with “solvents” for “solvent,”, “and” for “and the concentrate”
Rice plants (Oryza sativa) are sprayed with a preparation of the active ingredient of the desired concentration and the plants are infested with the brown planthopper (Nilaparvata lugens).
After 4 days mortality in % is determined. 100% means all planthoppers have been killed and 0% means none of the planthoppers have been killed.

[3] = test system: fall armyworm larvae (Spodoptera frugiperda); test: Spodoptera frugiperda spray test; conditions: 168 h, maize leaf sections, after 7 days
Procedure: Spodoptera frugiperda—Spray Test • Solvent: 78.0 parts by weight acetone • 1.5 parts by weight dimethylformamide • Emulsifier: alkylarylpolyglycol ether
as §1, with “solvents” for “solvent,”, “and” for “and the concentrate”
Maize (Zea mays) leaf sections are sprayed with a preparation of the active ingredient of the desired concentration. Once dry, the leaf sections are infested with fall armyworm larvae (Spodoptera frugiperda).
After 7 days mortality in % is determined. 100% means all caterpillars have been killed and 0% means none of the caterpillars have been killed.

[4] = test system: adult mosquitoes Aedes aegypti strain MONHEIM; test: Aedes aegypti test (AEDSAE surface treatment & contact assay); conditions: 24 hours after contact, read-out: efficacy (mortality); for mortality at 4 mg/m2: surface concentration 4 mg/m^2, 30 minutes exposure; for mortality at 20 mg/m2: surface concentration 20 mg/m^2, 30 minutes exposure
Procedure: Aedes aegypti Test (AEDSAE Surface Treatment & Contact Assay) • Solvent: Aceton+2000 ppm rapeseed oil methyl ester (RME)
(§2) In order to produce a sufficient, active ingredient containing solution it is necessary to solve the test compound in the solvent-mix (acetone at 2 mg/ml/RME 2000 ppm). This solution is pipetted onto a glazed tile and after evaporation of the acetone, adult mosquitoes of the species Aedes aegypti strain MONHEIM are placed onto the dried surface. The exposure time is 30 minutes. Mortality in percent (%) is determined 24 hours after contact of the insects to the treated surface. 100% mortality means that all tested insects are dead, whereas 0% means that no insect died.

[5] = test system: adult flies Musca domestica strain WHO-N; test: Musca domestica test (MUSCDO surface treatment & contact assay); conditions: 24 hours after contact, read-out: efficacy (mortality); for mortality at 4 mg/m2: surface concentration 4 mg/m^2, 30 minutes exposure; for mortality at 20 mg/m2: surface concentration 20 mg/m^2, 30 minutes exposure
Procedure: Musca domestica Test (MUSCDO Surface Treatment & Contact Assay) • Solvent: Aceton+2000 ppm rapeseed oil methyl ester (RME)
as §2, with “flies” for “mosquitoes”, “Musca domestica” for “Aedes aegypti”, “WHO-N” for “MONHEIM”

[6] = test system: adult brown dog ticks (Rhipicephalus sanguineus); test: Rhipicephalus sanguineus in-vitro contact test with adult brown dog ticks; conditions: 1 μg/cm^2 (=100 g/ha), after 48 hours
Procedure: Rhipicephalus sanguineus—In-Vitro Contact Tests with Adult Brown Dog Ticks
(§3) 9 mg compound is solved in 1 mL acetone and diluted with acetone to the desired concentration. 250 μL of the test solution is filled in 25 mL glass test tubes and homogeneously distributed on the inner walls by rotation and tilting on a shaking device (2 h at 30 rpm). With a compound concentration of 900 ppm, an inner surface of 44.7 cm^2 and a homogeneous distribution, a dose of 5 μg/cm^2 is achieved.
After the solvent has evaporated, each test tube is filled with 5-10 adult brown dog ticks (Rhipicephalus sanguineus), closed with a perforated lid and incubated in a lying position at room temperature and relative humidity. After 48 hours efficacy is determined. The ticks are patted on the ground of the tubes and are incubated on a heating plate at 45-50° C. for at most 5 minutes. Immotile or uncoordinated moving ticks, which are not able to escape the heat by climbing upwards, are marked as dead or moribund.
An efficacy of 100% means all ticks are dead or moribund; 0% means no ticks are dead or moribund.

[7] = test system: cattle tick larvae (Rhipicephalus microplus); test: Rhipicephalus (Boophilus) microplus in-vitro contact test, larval cattle tick (strain Parkhurst, resistant against synthetic pyrethroids); conditions: after 48 hours, read-out: efficacy (larvae dead or moribund); for pest or weed control at 1 µg/cm2, 100 g/ha: 1 μg/cm^2 (=100 g/ha)
Procedure: Rhipicephalus (Boophilus) Microplus—In-Vitro Contact Tests Larval Cattle Tick (Strain Parkhurst, Resistant Against Synthetic Pyrethroids)
as §3
After the solvent has evaporated, each test tube is filled with 20-50 cattle tick larvae (Rhipicephalus microplus), closed with a perforated lid and incubated in a horizontal position at 85% relative humidity and 27° C. in an incubator. After 48 hours efficacy is determined. The larvae are patted on the ground of the tubes and negative geotactic behavior is recorded.
An efficacy of 100% means all larvae are dead or moribund; 0% means no larvae are dead or moribund.

[8] = test system: green peach aphid (Myzus persicae); test: Myzus persicae spray test; conditions: foliar, 120 h, Chinese cabbage leaf disks, after 5 days
Procedure: Myzus persicae—Spray Test • Solvent: 78.0 parts by weight acetone • 1.5 parts by weight dimethylformamide • Emulsifier: alkylarylpolyglycol ether
as §1, with “solvents” for “solvent,”, “and” for “and the concentrate”
Chinese cabbage (Brassica pekinensis) leaf disks infected with all instars of the green peach aphid (Myzus persicae), are sprayed with a preparation of the active ingredient of the desired concentration.
(§4) After 5 days mortality in % is determined. 100% means all aphids have been killed and 0% means none of the aphids have been killed.

[9] = test system: adult mosquitoes Culex quinquefasciatus strain P00; test: Culex quinquefasciatus test (CULXFA surface treatment & contact assay); conditions: surface concentration 20 mg/m^2, 30 minutes exposure, 24 hours after contact, read-out: efficacy (mortality)
Procedure: Culex quinquefasciatus Test (CULXFA Surface Treatment & Contact Assay) • Solvent: Aceton+2000 ppm rapeseed oil methyl ester (RME)
as §2, with “2,000” for “2000”, “Culex quinquefasciatus” for “Aedes aegypti”, “P00” for “MONHEIM”

[10] = test system: cotton aphid (Aphis gossypii); test: Aphis gossypii oral test; conditions: 120 h, after 5 days
Procedure: Aphis gossypii—Oral Test • Solvent: 100 Parts by Weight Acetone
(§5) To produce a suitable preparation of active compound, 1 part by weight of active compound is mixed with the stated amount of solvent, and the concentrate is diluted with water to the desired concentration.
(§6) 50 μL compound solution is filled in microtiter plates and 150 μL IPL41 insect medium (33%+15% sugar) is added to obtain a total volume of 200 μL per well. Afterwards the plates are sealed with parafilm through which a mixed population of the cotton aphid (Aphis gossypii) can suck on the compound preparation.
as §4

[11] = test system: green peach aphid (Myzus persicae); test: Myzus persicae oral test; conditions: 120 h, after 5 days
Procedure: Myzus persicae—Oral Test • Solvent: 100 parts by weight acetone
as §5
as §6, with “green peach” for “cotton”, “(Myzus persicae)” for “(Aphis gossypii)”
as §4

[12] = test system: larvae of the southern green stink bug (Nezara viridula); test: Nezara viridula spray test; conditions: 96 h, barley plants, after 4 days
Procedure: Nezara viridula—Spray Test • Solvent: 78.0 parts by weight of acetone • 1.5 parts by weight of dimethylformamide • Emulsifier: alkylarylpolyglycol ether
as §1
Barley plants (Hordeum vulgare) are sprayed with a test solution containing the desired concentration of the active ingredient and are infested with larvae of the southern green stink bug (Nezara viridula).
After 4 days mortality in % is determined. 100% means all the stink bugs have been killed; 0% means none of the stink bugs have been killed.

[13] = test system: adult engorged female ticks (Rhipicephalus microplus); test: Rhipicephalus (Boophilus) microplus injection test; conditions: 4 μg/tick, egg deposition after 7 days
Procedure: Rhipicephalus (Boophilus) Microplus—Injection Test
• Solvent: Dimethyl Sulfoxide
To produce a suitable preparation of active compound, 10 mg of active compound are dissolved in 0.5 mL solvent, and the concentrate is diluted with solvent to the desired concentration.
Five adult engorged female ticks (Rhipicephalus microplus) are injected with 1 μL compound solution into the abdomen. The ticks are transferred into replica plates and incubated in a climate chamber.
After 7 days egg deposition of fertile eggs is monitored. Eggs where fertility is not visible are stored in a climate chamber till hatching after about 42 days. An efficacy of 100% means all eggs are infertile; 0% means all eggs are fertile.

| SMILES | pest or weed control at 32 µg/disc, 100 g/ha [1] | mortality at 500 g/ha [2] | mortality at 100 g/ha [3] | mortality at 4 mg/m2 [4] | mortality at 20 mg/m2 [4] | mortality at 20 mg/m2 [5] | efficacy (ticks dead or moribund) [6] | pest or weed control at 1 µg/cm2, 100 g/ha [7] | mortality at 100 g/ha [8] | further results |
| --- | --- | --- | --- | --- | --- | --- | --- | --- | --- | --- |
| CC(NC(=O)c1cc(OC(F)F)cc(OC(F)F)c1)c1nc2cccnc2n1-c1ccc(C#N)cn1 (stereo not drawn) [Example I-40] | 100% | 90% | 100% | 80 to 100% | 80 to 100% | 80 to 100% |  |  |  | mortality at 4 mg/m2 [5]: 80 to 100% |
| C[C@H](NC(=O)c1cc(C(F)F)n(C)n1)c1nc2cccnc2n1-c1ccc(C#N)cn1 [Example I-17] |  |  |  |  |  |  | 100% |  |  |  |
| CC(NC(=O)c1cc(C(F)(F)F)cc(C(F)(F)F)c1)c1nc2cccnc2n1-c1ccc(Cl)cn1 (stereo not drawn) [Example I-8] | 100% |  | 100% |  | 80 to 100% | 80 to 100% | 80% | 100% |  |  |
| CC(NC(=O)c1cc(C(F)(F)F)cc(C(F)(F)F)c1)c1nc2cccnc2n1-c1ccc(C#N)cn1 (stereo not drawn) [Example I-35] | 100% |  | 100% | 80 to 100% | 80 to 100% | 80 to 100% |  |  | 100% | mortality at 20 mg/m2 [9]: 80 to 100%; mortality at 4 mg/m2 [5]: 80 to 100% |
| C[C@H](NC(=O)c1cc(OC(F)(F)F)cc(S(C)(=O)=O)c1)c1nc2cccnc2n1-c1ccc(C#N)cn1 [Example I-4] | 100% | 90% | 100% | 80 to 100% |  |  |  |  |  | mortality at 100 ppm [10]: 100%; mortality at 20 ppm [11]: 100%; mortality at 500 g/ha [12]: 100% |
| CC(NC(=O)c1cc(OC(F)(F)F)cc(C2CC2)c1)c1nc2cccnc2n1-c1ccc(Cl)cn1 (stereo not drawn) [Example I-13] |  |  |  |  |  |  | 80% | 90% |  |  |
| CC(NC(=O)c1cc(C(F)(F)F)cc(C(F)(F)F)c1)c1nc2cccnc2n1-c1ccc(C(=O)N(C)C)cn1 (stereo not drawn) [Example I-26, 6-(2-{1-[3,5-bis(trifluoromethyl)benzamido]ethyl}-3H-imidazo[4,5-b]pyridin-3-yl)-N,N-dimethylnicotinamide] |  | 100% |  |  | 80 to 100% |  |  |  | 90% |  |
| CC(NC(=O)c1cc(OC(F)(F)F)cc(OC(F)(F)F)c1)c1nc2cccnc2n1-c1ccc(Cl)cn1 (stereo not drawn) [Example I-9] | 100% |  | 100% |  |  | 80 to 100% |  | 80% |  | mortality at 100 ppm [10]: 100%; mortality at 20 ppm [11]: 100%; mortality at 500 g/ha ([8]; 500 g/ha): 90% |
| C[C@H](NC(=O)c1cc(C#N)cc(C2(C#N)CC2)c1)c1nc2cccnc2n1-c1ccc(C#N)cn1 [Example I-6] |  |  | 100% | 80 to 100% |  |  |  | 90% | 90% |  |
| C[C@H](NC(=O)c1cc(OC(F)(F)F)cc(C2CC2)c1)c1nc2cccnc2n1-c1ccc(C#N)cn1 [Example I-2] |  |  | 100% |  | 80 to 100% | 80 to 100% |  | 100% |  | pest or weed control at 5 µg/cm2, 500 g/ha ([7]; 5 μg/cm^2 (=500 g/ha)): 100%; efficacy (infertile eggs) [13]: 100% |
